Positions of bridges follow the written chain, without caps; N, C: chain ends. Non-standard residues stand in square brackets, D forms with d. Residues, ends and D or L forms follow the SMILES beside them. *: point of attachment. Trp(7-Me) = Cc1cccc2c(C[C@H](N)C(=O)O)c[nH]c12; 2Nal = N[C@@H](Cc1ccc2ccccc2c1)C(=O)O; AEF = NCCOc1ccc(C[C@H](N)C(=O)O)cc1; dNMeY = CN[C@H](Cc1ccc(O)cc1)C(=O)O; 3Pal = N[C@@H](Cc1cccnc1)C(=O)O; d3Pal = N[C@H](Cc1cccnc1)C(=O)O; Pen = CC(C)(S)[C@H](N)C(=O)O; αMeK = C[C@](N)(CCCCN)C(=O)O; dOrn = NCCC[C@@H](N)C(=O)O; Thp = NC1(C(=O)O)CCOCC1; Me2NCH2CH2 = CN(C)CC*
Test: Exposed Polar Surface Area (EPSA)
Assay type: physicochemical
Details: SFC on Chirex 3014 column; sample 1 mM DMSO stock
Source text: Exposed Polar Surface Area (EPSA) is an experimental descriptor of molecular polarity obtained from chromatographic retention in supercritical fluid chromatography (SFC).
The stationary phase (Chirex 3014(S)-valine and (R)-1-(alpha-naphthyl) ethylamine) was selected for its balance of lipophilic and polar attributes and its capacity to separate compounds with wide polarity differences. The mobile phase consists of methanol (+Ammonium formate) and CO2. Polar compounds are retained stronger under these conditions and a low-slope gradient of methanol achieves elution based on increasing polarity of the mobile phase. Results are normalized using calibration standards generating a linear relationship between retention times and EPSA values. The unit of EPSA is Å^2.
Along with the measurement of compounds of interest, a series of 8 calibration standards (see Materials) are analyzed generating a linear relationship between retention times and EPSA value. The 8 compounds used as calibration standard have their own EPSA value defined by G. Goetz based on the comparison with TPSA (see G. Goetz, L. Philippe and M. Shapiro, “EPSA: A novel supercritical fluid chromatography technique enabling the design of permeable cyclic peptides,” ACS Med. Chem. Lett., vol. 5, pp. 1167-1172, 2014 for more information). The slope from the linear relationship between EPSA values of these eight compounds and their retention times is used to determine the EPSA value of each compound of interest that's measured under the same condition using the equation as below: […]
The mixture of calibrations standard is reinjected every 20 compounds to validate the stability of the retention time.
The mobile phase modifier consists of ammonium formate LC_MS grade (>99%) (CAS number 540-69-2) diluted to 20 mM in HPLC grade Methanol (MeOH, CAS number 67-56-1) and liquid C02 SFC grade (CAS number 124-38-9).
Antipyrine (CAS number: 60-80-0) Chlorpromazine hydrochloride (CAS number: 69-09-0), desipramine hydrochloride (CAS number: […]), pindolol (CAS Number: 13523-86-9), diclofenac (CAS number: 15307-79-6)), m-nitro benzoic acid (CAS number: 121-92-6), bumetanide (CAS number: 28395-03-1), furosemide (CAS number: 54-31-9) were purchased from Sigma Aldrich (Steihneim, Germany).
All analyses were performed on a ultra performance convergence chromatography (UPC™) apparatus (Waters, Milford, MA, USA) equipped with a sample manager, a binary solvent delivery pump (BSM), a column manager, a convergence manager (automated back pressure regulator), a photo diode array detector (DAD) with a high pressure flow cell, and a mass detector simple quadrupole QDa. After the UV detector, the effluent of the SFC was mixed with an eluent consist of mixture MeOH/water (+0.3% Ammonia) 95/5 delivered by a make up pump with a flow rate of 0.4 mL/min and then split to the QDa using a splitter. The instrument was controlled, and data were processed with Masslynx 4.1.
The Analyses were performed using a 4.6×50 mm Chirex 3014(S)-valine and (R)-1-(alpha- naphthyl) ethylamine column (Phenomenex, Le Pecq, France) with 5 um particle and 100A pore size. The flow rate was 4 mL/min with the outlet pressure set to 14 MPa. The injection volume was 2 μL. the mobile phase composition was varied from 5% to 60% modifier at 20%/ min in a linear gradient, holding at 60% for 1.45 min and reverting to the original 5% until the end of the run. Data are acquired during 5 min. An equilibration time of 1 min is applied between 2 injections resulting in an injection every 6 min. each sample is analyzed in duplicate, resulting in a sample to sample turnaround time of 12 min.
The column temperature was set to 35° C. The mass detector was used in full scan from 100 to 800 for small molecules and from 500 to 1200 for peptides.
Each sample is delivered by compound logistics from DMSO stock solution without dilution. The concentration is 1 mM and the volume is 60 μL.

Compound | EPSA
CC(=O)NCCCC[C@H](NC(=O)[C@](C)(CCCCN)NC(=O)[C@H](Cc1ccc2ccccc2c1)NC(=O)[C@H](Cc1ccc(OCCN)cc1)NC(=O)[C@H]1NC(=O)[C@H](Cc2ccc(O)cc2)NC(=O)[C@H](Cc2c[nH]c3c(C)cccc23)NC(=O)[C@H]([C@@H](C)O)NC(=O)[C@H](CC(N)=O)NC(=O)[C@@H](NC(C)=O)C(C)(C)SSC1(C)C)C(=O)N[C@@H](CC(N)=O)C(=O)N[C@H](CCCCN)C(=O)N(C)[C@H](Cc1ccc(O)cc1)C(N)=O [compound 21, MeCO-Pen(3)-N-T-7MeW-Y-Pen(3)-AEF-2Nal-aMeK-K(Ac)-N-k-NMeDTyr-CONH2] (Ac-[Pen]NT[Trp(7-Me)]Y[Pen][AEF][2Nal][αMeK]K(Ac)N[dK][dNMeY]-NH2; disulfide 1-6 (inferred)) | 170.27 Å^2

Same assay, conditions: SFC on Chirex 3014 column; sample 1 mM DMSO stock; read-out: EPSA

Compound | EPSA
CC(=O)NCCCC[C@@H]1NC(=O)[C@H](Cc2c[nH]c3c(C)cccc23)NC(=O)[C@H]([C@@H](C)O)NC(=O)[C@H](CC(N)=O)NC(=O)[C@@H](NC(C)=O)C(C)(C)SSC(C)(C)[C@@H](C(=O)N[C@@H](Cc2ccc(OCCN)cc2)C(=O)N[C@@H](Cc2ccc3ccccc3c2)C(=O)N[C@@](C)(CCCCN)C(=O)N[C@@H](CCCCNC(C)=O)C(=O)N[C@@H](CC(N)=O)C(=O)N[C@@H](C(=O)N(C)[C@H](Cc2ccc(O)cc2)C(N)=O)C(C)C)NC1=O [compound 14, MeCO-Pen(3)-N-T-7MeW-K(Ac)-Pen(3)-AEF-2Nal-aMeK-K(Ac)-N-v-NMeDTyr-CONH2] (Ac-[Pen]NT[Trp(7-Me)]K(Ac)[Pen][AEF][2Nal][αMeK]K(Ac)N[dV][dNMeY]-NH2; disulfide 1-6) | 166 A^2
CC(=O)NCCCC[C@@H]1NC(=O)[C@H](Cc2c[nH]c3c(C)cccc23)NC(=O)[C@H]([C@@H](C)O)NC(=O)[C@H](CC(N)=O)NC(=O)[C@@H](NC(C)=O)C(C)(C)SSC(C)(C)[C@@H](C(=O)N[C@@H](Cc2ccc(OCCN)cc2)C(=O)N[C@@H](Cc2ccc3ccccc3c2)C(=O)N[C@@](C)(CCCCN)C(=O)N[C@@H](CCCCNC(C)=O)C(=O)N[C@@H](CC(N)=O)C(=O)N[C@@H](C(=O)N(C)[C@H](Cc2ccc(O)cc2)C(N)=O)[C@H](C)O)NC1=O [compound 15, MeCO-Pen(3)-N-T-7MeW-K(Ac)-Pen(3)-AEF-2Nal-aMeK-K(Ac)-N-t-NMeDTyr-CONH2] (Ac-[Pen]NT[Trp(7-Me)]K(Ac)[Pen][AEF][2Nal][αMeK]K(Ac)N[dT][dNMeY]-NH2; disulfide 1-6 (inferred)) | 168 A^2
CC(=O)NCCCC[C@@H]1NC(=O)[C@H](Cc2c[nH]c3c(C)cccc23)NC(=O)[C@H]([C@@H](C)O)NC(=O)[C@H](CC(N)=O)NC(=O)[C@@H](NC(C)=O)C(C)(C)SSC(C)(C)[C@@H](C(=O)N[C@@H](Cc2ccc(OCCN)cc2)C(=O)N[C@@H](Cc2ccc3ccccc3c2)C(=O)N[C@@](C)(CCCCN)C(=O)N[C@@H](CCCCNC(C)=O)C(=O)N[C@@H](CC(N)=O)C(=O)N[C@H](CCCN)C(=O)N(C)[C@H](Cc2ccc(O)cc2)C(N)=O)NC1=O [compound 18, MeCO-Pen(3)-N-T-7MeW-K(Ac)-Pen(3)-AEF-2Nal-aMeK-K(Ac)-N-orn-NMeDTyr-CONH2] (Ac-[Pen]NT[Trp(7-Me)]K(Ac)[Pen][AEF][2Nal][αMeK]K(Ac)N[dOrn][dNMeY]-NH2; disulfide 1-6) | 219 A^2
CC(=O)NCCCC[C@@H]1NC(=O)[C@H](Cc2c[nH]c3c(C)cccc23)NC(=O)[C@H]([C@@H](C)O)NC(=O)[C@H](CC(N)=O)NC(=O)[C@@H](NC(C)=O)C(C)(C)SSC(C)(C)[C@@H](C(=O)N[C@@H](Cc2ccc(OCCN)cc2)C(=O)N[C@@H](Cc2ccc3ccccc3c2)C(=O)N[C@@](C)(CCCCN)C(=O)N[C@@H](CCCCNC(C)=O)C(=O)N[C@@H](CC(N)=O)C(=O)N[C@H](CO)C(=O)N(C)[C@H](Cc2ccc(O)cc2)C(N)=O)NC1=O [compound 19, MeCO-Pen(3)-N-T-7MeW-K(Ac)-Pen(3)-AEF-2Nal-aMeK-K(Ac)-N-s-NMeDTyr-CONH2] (Ac-[Pen]NT[Trp(7-Me)]K(Ac)[Pen][AEF][2Nal][αMeK]K(Ac)N[dS][dNMeY]-NH2; disulfide 1-6) | 171 A^2
CC(=O)NCCCC[C@@H]1NC(=O)[C@H](Cc2c[nH]c3c(C)cccc23)NC(=O)[C@H]([C@@H](C)O)NC(=O)[C@H](CC(N)=O)NC(=O)[C@@H](NC(C)=O)C(C)(C)SSC(C)(C)[C@@H](C(=O)N[C@@H](Cc2ccc(OCCN)cc2)C(=O)N[C@@H](Cc2ccc3ccccc3c2)C(=O)N[C@@](C)(CCCCN)C(=O)N[C@@H](CCCCNC(C)=O)C(=O)N[C@@H](CC(N)=O)C(=O)N[C@H](Cc2ccccc2)C(=O)N(C)[C@H](Cc2ccc(O)cc2)C(N)=O)NC1=O [compound 20, MeCO-Pen(3)-N-T-7MeW-K(Ac)-Pen(3)-AEF-2Nal-aMeK-K(Ac)-N-f-NMeDTyr-CONH2] (Ac-[Pen]NT[Trp(7-Me)]K(Ac)[Pen][AEF][2Nal][αMeK]K(Ac)N[dF][dNMeY]-NH2; disulfide 1-6 (inferred)) | 168 A^2
CC(=O)NCCCC[C@H](NC(=O)[C@](C)(CCCCN)NC(=O)[C@H](Cc1ccc2ccccc2c1)NC(=O)[C@H](Cc1ccc(OCCN)cc1)NC(=O)[C@H]1NC(=O)[C@H](Cc2ccc(O)cc2)NC(=O)[C@H](Cc2c[nH]c3c(C)cccc23)NC(=O)[C@H]([C@@H](C)O)NC(=O)[C@H](CC(N)=O)NC(=O)[C@@H](NC(C)=O)C(C)(C)SSC1(C)C)C(=O)N[C@@H](CC(N)=O)C(=O)N[C@H](CCCCN)C(=O)N(C)[C@H](Cc1ccc(O)cc1)C(N)=O [compound 21, MeCO-Pen(3)-N-T-7MeW-Y-Pen(3)-AEF-2Nal-aMeK-K(Ac)-N-k-NMeDTyr-CONH2] (Ac-[Pen]NT[Trp(7-Me)]Y[Pen][AEF][2Nal][αMeK]K(Ac)N[dK][dNMeY]-NH2; disulfide 1-6 (inferred)) | 152 A^2
CC(=O)NCCCC[C@@H]1NC(=O)[C@H](Cc2c[nH]c3c(C)cccc23)NC(=O)[C@H]([C@@H](C)O)NC(=O)[C@H](CC(N)=O)NC(=O)[C@@H](NC(C)=O)C(C)(C)SSC(C)(C)[C@@H](C(=O)N[C@@H](Cc2ccc(OCCN)cc2)C(=O)N[C@@H](Cc2ccc3ccccc3c2)C(=O)N[C@@](C)(CCCCN)C(=O)N[C@@H](CCCCNC(C)=O)C(=O)N[C@@H](CC(N)=O)C(=O)N[C@H](Cc2c[nH]cn2)C(=O)N(C)[C@H](Cc2ccc(O)cc2)C(N)=O)NC1=O [compound 26, MeCO-Pen(3)-N-T-7MeW-K(Ac)-Pen(3)-AEF-2Nal-aMeK-K(Ac)-N-h-NMeDTyr-CONH2] (Ac-[Pen]NT[Trp(7-Me)]K(Ac)[Pen][AEF][2Nal][αMeK]K(Ac)N[dH][dNMeY]-NH2; disulfide 1-6 (inferred)) | 148 A^2
CC(=O)NCCCC[C@@H]1NC(=O)[C@H](Cc2c[nH]c3c(C)cccc23)NC(=O)[C@H]([C@@H](C)O)NC(=O)[C@H](CC(N)=O)NC(=O)[C@@H](NC(C)=O)C(C)(C)SSC(C)(C)[C@@H](C(=O)N[C@@H](Cc2ccc(OCCN)cc2)C(=O)N[C@@H](Cc2ccc3ccccc3c2)C(=O)N[C@@](C)(CCCCN)C(=O)N[C@@H](CCCCNC(C)=O)C(=O)N[C@@H](CC(N)=O)C(=O)N[C@@H](Cc2cccnc2)C(=O)N(C)[C@H](Cc2ccc(O)cc2)C(N)=O)NC1=O [compound 30, MeCO-Pen(3)-N-T-7MeW-K(Ac)-Pen(3)-AEF-2Nal-aMeK-K(ac)-N-3Pya-NMeDTyr-CONH2] (Ac-[Pen]NT[Trp(7-Me)]K(Ac)[Pen][AEF][2Nal][αMeK]K(Ac)N[3Pal][dNMeY]-NH2; disulfide 1-6) | 166 A^2
CC(=O)NCCCC[C@@H]1NC(=O)[C@H](Cc2c[nH]c3c(C)cccc23)NC(=O)[C@H]([C@@H](C)O)NC(=O)[C@H](CC(N)=O)NC(=O)[C@@H](NC(C)=O)C(C)(C)SSC(C)(C)[C@@H](C(=O)N[C@@H](Cc2ccc(OCCN(C)C)cc2)C(=O)N[C@@H](Cc2ccc3ccccc3c2)C(=O)N[C@@](C)(CCCCN)C(=O)N[C@@H](CCCCNC(C)=O)C(=O)N[C@@H](CC(N)=O)C(=O)NC2(C(N)=O)CCOCC2)NC1=O [compound 31] (Ac-[Pen]NT[Trp(7-Me)]K(Ac)[Pen]Y(Me2NCH2CH2)[2Nal][αMeK]K(Ac)N[Thp]-NH2; disulfide 1-6) | 158 A^2
CC(=O)NCCCC[C@@H]1NC(=O)[C@H](Cc2c[nH]c3c(C)cccc23)NC(=O)[C@H]([C@@H](C)O)NC(=O)[C@H](CC(N)=O)NC(=O)[C@@H](NC(C)=O)C(C)(C)SSC(C)(C)[C@@H](C(=O)N[C@@H](Cc2ccc(OCCN)cc2)C(=O)N[C@@H](Cc2ccc3ccccc3c2)C(=O)N[C@@](C)(CCCCN)C(=O)N[C@@H](CCCCNC(C)=O)C(=O)N[C@@H](CC(N)=O)C(=O)N[C@H](Cc2cccnc2)C(=O)N(C)[C@H](Cc2ccc(O)cc2)C(N)=O)NC1=O [compound 32, MeCO-Pen(3)-N-T-7MeW-K(Ac)-Pen(3)-AEF-2Nal-aMeK-K(ac)-N-3pya-NMeDTyr-CONH2] (Ac-[Pen]NT[Trp(7-Me)]K(Ac)[Pen][AEF][2Nal][αMeK]K(Ac)N[d3Pal][dNMeY]-NH2; disulfide 1-6) | 166 A^2

From patent US20260022143A1, “Cyclic Peptide Inhibitors of IL-23” (JANSSEN PHARMACEUTICA NV, priority 2022, published 2026)
